The results in this text go back to patent US20100247617A1, “Transdermal Administration Of (2S)-(4E)-N-Methyl-5-(3-(5-Isopropoxypyridin)yl)-4-Penten-2-Amine” (TARGACEPT, INC., priority 2007, published 2010).

Data set [1] can be described thus: In vitro skin penetration study using pig-ear (Bronaugh diffusion cells). In kind it is in vitro ADME. The note with it: receiver PBS pH 7.4, 32° C.; for Cumulative penetrated amount: 24-hour period, pig-ear skin; for Steady state flux: pig-ear skin approx. 900 μm, average ± SD. The procedure: Bronaugh diffusion cells were used for in vitro penetration studies, which were carried out to determine the flux (i.e. the speed by which the compound penetrates skin) and total cumulated amount penetrated of ^14C-active ingredient. The compound was dissolved in water at two concentrations, 35 and 135 mg/g. Pig-ear full-thickness skin (dermatomed to approx. 900 μm thick) was used as the membrane. The receiver compartment contained phosphate buffered saline (pH 7.4) and the temperature was maintained at 32° C. The compound solutions were applied onto the stratum corneum. Receiver compartment samples (2, 4, 8 12 and 14 h) were assayed by liquid scintillation counting. The transdermal flux (μg/cm^2/h) can be determined from the steady-state slope of the plot of the cumulative amount of active ingredient permeating through the skin versus time. After steady-state was established, the linear portion of the plot was used to calculate the flux from the slope.
The cumulative penetrated amounts and derived steady state fluxes for both tested concentrations during a 24-hour period are presented in FIG. 1 and TABLE 1.

Data set [2] in a line: Maximal solubility in water. The class given is physicochemical.
Setting [3] is: test concentration 35 mg/g water.
Where [4] appears, read: test concentration 135 mg/g water.

In data set [1] (setting [3]), `CN[C@@H](C)C/C=C/c1cncc(OC(C)C)c1` [active ingredient, (2S)-(4E)-N-methyl-5-(3-(5-isopropoxypyridin)yl)-4-penten-2-amine] had a Cumulative penetrated amount of 27 ± 36 μg/cm^2 and a Steady state flux of 2.6 ± 3.6 μg/cm^2/h. Also, in data set [1] (setting [4]), the Cumulative penetrated amount turned out to be 55 ± 88 μg/cm^2 and the Steady state flux was 5.1 ± 9.0 μg/cm^2/h. Moreover, in data set [2], the “maximal solubility in water” value came to 200 mg/g.
